“Also recorded” adds a separate entry of the source.
Tests used:
[1] = RSSH generation in the presence of N-acetyl cysteine by UPLC-MS; type: physicochemical; details: precursor 100 μM, NAC 500 μM, pH 7.4 ammonium bicarbonate buffer with DTPA, 37° C.
Method: […] The resulting mixture was incubated at 37° C. An aliquot (200 μL) of reaction mixture was withdrawn at specified time points and quenched with 1% formic acid (200 μL). 3-Amino-benzoic acid (50 μM) was added to each sample as internal standard prior to UPLC-MS analysis. To quantify 2a-d generated from these precursors, a calibration curve for each individual cyclic urea with known concentrations was independently generated.
[…] The resulting mixture was incubated at 37° C. An aliquot ([…]) of reaction mixture was withdrawn at specified time points and quenched with 1% formic acid (200 μL). 3-amino-benzoic acid (50 μM) was added to each sample as internal standard prior to UPLC-MS analysis. To quantify 2a-d generated from these precursors, the calibration curve of each individual cyclic urea with known concentrations was independently generated.

[2] = Kinetics of RSSH release from precursors monitored by HPLC (HPE-IAM trapping); type: physicochemical; details: precursor 100 μM, HPE-IAM 5 mM, pH 7.4 phosphate buffer with DTPA, 37° C.
Method: (§1) Precursors 7a-d were dissolved in DMSO to afford 10 mM stock solutions. HPE-IAM was dissolved in DMSO to obtain a 100 mM stock solution. […] This solution was pre-incubated for 10 min at 37° C. and then precursor 7a-d (30 μL, 10 mM) were independently added into the mixture. The resulting solution was incubated at 37° C. At different time points, an aliquot of 200 μL was taken and quenched with 200 μL […] solution. These samples were stored at 0° C. until HPLC analysis was performed. The sample (20 μL) was injected into a high-performance liquid chromatography (HPLC) equipped with Phenomenex C-18 reverse phase column (250 mm×4.6 mm, 5 μm). HPLC Method: mobile phase A (H2O) and mobile phase B (ACN), flow rate: 1 mL/min, run time: 20 min, the gradient elution method: 10% to 40% B from 0 to 12 min, 40% to 80% B from 12 to 20 min. The elution was monitored by a UV detector at 275 nm. A calibration curve was generated using RSS-HPE-AM 9 to quantify RSSH generation from 7a-d.
as §1, with “by a variable UV detector” for “by a UV detector”

[3] = COS release using membrane inlet mass spectrometry (MIMS); type: physicochemical; details: precursor 50 μM, NAC 0.25 mM (5 equiv.), pH 7.4 phosphate buffer saline with DTPA, 37° C.
Method: (§2) COS was analyzed using a Hiden HPR-40 MIMS system with a sample cell and membrane probe that have been optimized to detect gases dissolved in aqueous solution as described previously. Cline et al., 2011. A stock solution of N-acetyl-cysteine (25 mM) was prepared in DI water. RSSH precursor stock solutions (5 mM) were prepared in DMSO. These solutions were degassed by purging with nitrogen for 10 min before COS release analysis. Typically, 20 mL phosphate buffer solution (10 mM) was added to the sample cell, degassed and purged with a continuous flow of argon for 15 min. N-acetyl cysteine (200 μL, 25 mM) and RSSH precursor (200 μL, 5 mM) were then injected using a gas tight syringe and ion current at m/z 60 (COS^+) were collected for 2 h (source pressure was approximately 1×10^−7 to 5×10^−7 Torr).
as §2, with “(COS*)” for “(COS^+)”

[4] = system: H9c2 cells; assay: Cytotoxicity study with SYTOX Green nucleic acid stain; type: cell-based, rat; details: 24 h exposure, 0-150 μM
Method: H9c2(2-1) embryonic rat heart myoblasts were obtained from the American Type Culture Collection. Cells were grown in Dulbecco's […] (DMEM), supplemented with fetal bovine serum (FBS) 10%, penicillin 100 U/mL and streptomycin 100 μg/mL. They were propagated in T75-flasks, split before reaching 70-80% confluence (usually every day or every second day), and used within 11 passages. Cells were passaged to tissue culture treated 96-well microtiter plates at the specified density in 180 μL volumes and incubated for 24 h.
Cells were seeded at a density of 1×10^4 cells/well. […] Then, 100 μL of media containing 3 μM SYTOX™ Green nucleic acid stain (Invitrogen) was added and the cells were incubated for 2 h before fluorescence readings were obtained at 485Ex/538Em (Step 1). Finally, an additional 100 μL of media containing 3 μM SYTOX™ and 0.2% Triton X-100 was added in order to permeabilize all cells and incubated for 1 h before fluorescence values measured (Step 2). The relative % cells surviving was calculated as a 100% minus the ratio of the fluorescence value of Step 1 over Step 2 (% cells surviving=100%−(FL538 (Step 1)/FL538(Step 2)).
Cells were seeded at a density of 1×10^4 cells/well. […] The relative % cells surviving was calculated as a 100% minus the ratio of the fluorescence value of Step 1 over Step 2 (% cells surviving=100%−(FL538 (Step 1)/FL538(Step 2)).

[5] = system: H9c2 cells; assay: H9c2 cell protection from H2O2-mediated oxidative stress, SYTOX Green nucleic acid stain; type: cell-based, rat; details: 2 h pretreatment (150 μM for 8), then H2O2 200 μM
Method: Cells were seeded at a density of 1×10^4 cells/well. After 24 h, precursor 7b or byproduct 2b is added in 20 μL volumes using DMSO: H2O (<0.01% DMSO). Cells were incubated for 2 h before media was removed and the cells gently washed with PBS (pH 7.4). Then, 180 μL of fresh media and 20 μL H2O2 diluted in H2O were added before cells were incubated for an additional 1 h. After removing this media, 100 μL of media containing 3 μM SYTOX™ Green nucleic acid stain was added, and the cells incubated for 2 h before fluorescence readings were obtained at 485Ex/538Em (Step 1). Finally, an additional 100 μL of media containing 3 μM SYTOX™ and 0.2% Triton X-100 was added in order to permeabilize all cells and incubated for 1 h before fluorescence values measured (Step 2). The relative % cells surviving was calculated as a 100% minus the ratio of the fluorescence value of Step 1 over Step 2 (% cells surviving=100%−(FL538 (Step 1)/FL538 (Step 2)). Fluorescence values for vehicle-treated, non-H2O2-exposed wells were treated as background cell death and this value is added to the % cell survival for each subsequent group.
See Hofgaard et al., 2006, for general procedures. […] After removing this media, 100 μL of media containing 3 μM SYTOX® Green nucleic acid stain was added, and the cells incubated for 2 h before fluorescence readings were obtained at 485Ex/538Em (Step 1). […]

[6] = Stability and intermolecular reactivity of control compound 8 by UPLC-MS; type: physicochemical; details: 100 μM, 37° C.
Method: FIG. 11 is an UPLC-MS chromatogram of 8 (100 μM) incubated in pH 7.4 ammonium bicarbonate buffer at 37° C. Aliquots taken at various times were quenched with 1% formic acid and analyzed by UPLC-MS.
Aliquots (200 μL) were taken at specified time points, quenched with 1% formic acid (200 μL) and analyzed using UPLC-MS.
FIG. 13 is UPLC-MS chromatograms of control compound 8 (100 μM) reaction with NAC (500 μM) in pH 7.4 ammonium bicarbonate (50 mM) with the metal chelator DTPA (100 μM) at 37° C. Aliquots (200 μL) were taken at specified time points, quenched with 1% formic acid (200 μL) and analyzed using UPLC-MS;

Compound: COC(=O)C(NC(C)=O)C(C)(C)SSC(=O)N(C)CCCN (stereo not drawn) [Precursor 7d, 3-(((3-acetamido-4-methoxy-2-methyl-4-oxobutan-2-yl)disulfannecarbonyl)(methyl)amino)propan-1-aminium]
- Byproduct % (yield of cyclic urea 2a-d) [1]: 5.9 ± 0.4%
- Hydropersulfide Yield (%) [2]: 82 ± 1%
- COS release (m/z=60 signal) [3]: produce mainly COS

Compound: CN1CCNC1=O [byproduct 2b, 1-methylimidazolidin-2-one]
- cytotoxicity toward H9c2 cells [4]: no toxicity

Compound: CCCN(C)C(=O)SSC(C)(C)C(NC(C)=O)C(=O)OC (stereo not drawn) [control compound 8, Methyl 2-acetamido-3-methyl-3-((methyl(propyl)carbamoyl)disulfaneyl)butanoate]
- protection against H2O2-mediated toxicity (SYTOX) [5]: protective effects against H2O2-mediated toxicity, but to a lesser extent compared with 7b
- RSSH release via intermolecular reaction with thiol ([6]; NAC 500 μM, pH 7.4 ammonium bicarbonate buffer): does not release RSSH via intermolecular reactions
- reaction with n-butylamine (RSSH release via intermolecular reaction) ([6]; n-BuNH2 500 μM (5 equiv.), pH 7.4 ammonium bicarbonate:acetonitrile (9:1), at least over 2 h): no reactivity; also recorded: lack of reaction
- stability / RSSH release at pH 7.4 ([6]; pH 7.4 ammonium bicarbonate buffer): No RSSH release; also recorded: stable under these conditions and does not produce RSSH
- COS release (m/z=60 signal) [3]: Relatively slow COS release

Reference: patent US11584712B2, “Alkylamine-substituted perthiocarbamates as dual precursors to hydropersulfide and carbonyl sulfide” (The Johns Hopkins University, priority 2020, dated 2023)
